# Laboratory results as given in patent publication US20110189204A1, “Treatment of Disease with Proteasone Inhibitors” (priority 2009, published 2011).
# Experiments:
# [1] = system: 20S proteasome (chymotryptic activity) in whole blood; assay: 20S proteasome inhibition in whole blood, daily (5/7 days) dosing (TOX8394); type: in vivo, Cynomolgus monkeys
# Experimental: (§1) For each study, the 20S proteasome activity in whole blood was determined, as described in Lightcap, Clin. Chem., 46:673 (2000). The chymotryptic activity was assayed by measuring the rate at which the proteasome hydrolyzed an amide bond in a small fluorescence tagged polypeptide substrate. The specific activity (Spa) was normalized to the amount of protein present in the lysate.
# [2] = in vivo; details: both, cynomolgus monkey, plasma
# Experimental: (§3) For bi-weekly dosing treatment (TOX 7345), a group of 3 male and 3 female Cynomolgus monkeys were dosed for 4 cycles.
# (§4) The test substance and vehicle were freshly prepared on the day of use.
# (§5) For each study, the values of the time to maximum plasma concentration (Tmax), the maximum plasma concentration (Cmax) were determined by visual inspection of the data. The area-under-the plasma-concentration-time curve (AUC) was estimated by the linear trapezoidal rule. Plasma samples were analyzed using a validated LC/MS/MS method with a lower quantification limit of about 0.5 ng/ml.
# [3] = Plasma pharmacokinetics, daily (5/7 days) subcutaneous dosing (TOX8394)
# [4] = system: 20S proteasome (chymotryptic activity) in whole blood; assay: 20S proteasome inhibition in whole blood, bi-weekly/weekly dosing (TOX7345); type: in vivo, Cynomolgus monkeys
# Experimental: as §1
# [5] = in vivo; details: both, cynomolgus monkey, plasma; remark: listed apart in the source
# [6] = in vivo
# Experimental: (§2) For each study group, the following toxicological screening was performed: mortality, body weight, food consumption, clinical observations, ophthalmology, electrocardiography, hematology, serum biochemistry, urinalysis, injection site evaluations (erythema and edema), neurological examinations, histology, and peripheral neuropathy.
# [7] = Plasma pharmacokinetics, bi-weekly/weekly subcutaneous dosing (TOX7345)
# Experimental: as §3, §4, §5
# [8] = Toxicological screening, bi-weekly/weekly subcutaneous dosing (TOX7345)
# Experimental: as §2
# [9] = day 3, 0.0166 mg/kg sc daily (5/7 days)
# [10] = day 3, 0.0333 mg/kg sc daily (5/7 days)
# [11] = day 3, 0.05 mg/kg sc daily (5/7 days)
# [12] = day 54, 0.0166 mg/kg sc daily (5/7 days)
# [13] = day 54, 0.0333 mg/kg sc daily (5/7 days)
# [14] = day 54, 0.05 mg/kg sc daily (5/7 days)
# [15] = day 1, 0.075 mg/kg sc bi-weekly
# [16] = day 32, 0.075 mg/kg sc bi-weekly
# [17] = day 74, 0.075 mg/kg sc bi-weekly
# [18] = both, cynomolgus monkey, in vivo
# [19] = cynomolgus monkey, in vivo, 0.1 mg/kg
smiles,measurement,setting,value
CC(C)C[C@H](NC(=O)[C@H](Cc1ccccc1)NC(=O)c1cnccn1)B(O)O [bortezomib],"cumulative AUE (over 1 week), daily schedule higher than bi-weekly",[1]; 0.05 mg/kg daily vs 0.1 mg/kg bi-weekly,about 50%
same,AUE0-24 h,[1]; about 0.6 mg/m^2 once daily,900 %. h
same,remaining 20S proteasome inhibition at the end of each 2-day drug-holiday,[1]; activity determined on various days before dosing,no indication for remaining 20S proteasome inhibition
same,highest inhibition (Emax),"[1]; daily schedule, 0.05 mg/kg",73%
same,cumulative weekly AUE,"[1]; daily schedule, about 0.6 mg/m^2",4500 %. h
same,AUE0-24 h,[1]; [9],603 (77) % Inhibition · time
same,Emax (% proteasome inhibition),[1]; [9],48%
same,Tmax (time of occurrence of Emax),[1]; [9],30 min
same,AUE0-24 h,[1]; [10],685 (32) % Inhibition · time
same,Emax (% proteasome inhibition),[1]; [10],58%
same,Tmax (time of occurrence of Emax),[1]; [10],30 min
same,AUE0-24 h,[1]; [11],802 (67) % Inhibition · time
same,Emax (% proteasome inhibition),[1]; [11],65%
same,Tmax (time of occurrence of Emax),[1]; [11],30 min
same,AUE0-24 h,[1]; [12],481 (103) % Inhibition · time
same,Emax (% proteasome inhibition),[1]; [12],38%
same,Tmax (time of occurrence of Emax),[1]; [12],30 min
same,AUE0-24 h,[1]; [13],895 (125) % Inhibition · time
same,Emax (% proteasome inhibition),[1]; [13],62%
same,Tmax (time of occurrence of Emax),[1]; [13],30 min
same,AUE0-24 h,[1]; [14],1039 (114) % Inhibition · time
same,Emax (% proteasome inhibition),[1]; [14],73%
same,Tmax (time of occurrence of Emax),[1]; [14],30 min
same,time of maximal proteasome inhibition after dosing,"[1]; on average, sc administration",about 0.5 h
same,AUC(0-t),"[2]; Cynomolgus, sc, 0.166 mg/kg",229 ng·h/mL
same,Cmax,"[2]; Cynomolgus, sc, 0.166 mg/kg",158 ng/mL
same,Tmax,"[2]; Cynomolgus, sc, 0.166 mg/kg",13.8 min
same,Tmax,"[2]; Cynomolgus, subcutaneous",≤ 15 min
same,Cmax,"[2]; sc, 0.075 mg/kg",61.1 ng/mL
same,Cmax,"[2]; sc, 0.1 mg/kg",86.2 ng/mL
same,Tmax,"[2]; sc, 0.1 mg/kg",7.02 min
same,AUC(0-t),"[2]; sc, 0.166 mg/kg",160 ng·h/mL
same,Cmax,"[2]; sc, 0.166 mg/kg",144 ng/mL
same,Tmax,"[2]; sc, 0.166 mg/kg",7.02 min
same,Tmax,[3]; [9],0.138 (0.05) h
same,Tmax,[3]; [10],0.165 (0.07) h
same,Tmax,[3]; [11],0.203 (0.07) h
same,Tmax,[3]; [12],0.161 (0.07) h
same,Tmax,[3]; [13],0.184 (0.07) h
same,Tmax,[3]; [14],0.185 (0.07) h
same,AUE0-72h,[4]; about 1.2 mg/m^2 bi-weekly,1500 %. h
same,strongest inhibition (Emax),"[4]; bi-weekly regimen, 0.1 mg/kg",74%
same,cumulative weekly AUE,"[4]; bi-weekly schedule, about 1.2 mg/m^2",3000 %. h
same,AUE0-24 h,[4]; [15],585 (87) % Inhibition · time
same,Emax (% proteasome inhibition),[4]; [15],63%
same,Tmax (time of occurrence of Emax),[4]; [15],30 min
same,AUE0-24 h,"[4]; day 1, 0.1 mg/kg sc bi-weekly",926 (99) % Inhibition · time
same,Emax (% proteasome inhibition),"[4]; day 1, 0.1 mg/kg sc bi-weekly",74%
same,Tmax (time of occurrence of Emax),"[4]; day 1, 0.1 mg/kg sc bi-weekly",30 min
same,AUE0-24 h,"[4]; day 1, 0.166 mg/kg sc weekly",931 (124) % Inhibition · time
same,Emax (% proteasome inhibition),"[4]; day 1, 0.166 mg/kg sc weekly",78%
same,Tmax (time of occurrence of Emax),"[4]; day 1, 0.166 mg/kg sc weekly",60 min
same,AUE0-24 h,[4]; [16],1086 (158) % Inhibition · time
same,Emax (% proteasome inhibition),[4]; [16],68%
same,Tmax (time of occurrence of Emax),[4]; [16],30 min
same,AUE0-24 h,"[4]; day 32, 0.1 mg/kg sc bi-weekly",1454 (201) % Inhibition · time
same,Emax (% proteasome inhibition),"[4]; day 32, 0.1 mg/kg sc bi-weekly",71%
same,Tmax (time of occurrence of Emax),"[4]; day 32, 0.1 mg/kg sc bi-weekly",30 min
same,AUE0-24 h,"[4]; day 50, 0.166 mg/kg sc weekly",2152 (222) % Inhibition · time
same,Emax (% proteasome inhibition),"[4]; day 50, 0.166 mg/kg sc weekly",78%
same,Tmax (time of occurrence of Emax),"[4]; day 50, 0.166 mg/kg sc weekly",30 min
same,AUE0-24 h,[4]; [17],1111 (116) % Inhibition · time
same,Emax (% proteasome inhibition),[4]; [17],67%
same,Tmax (time of occurrence of Emax),[4]; [17],30 min
same,AUE0-24 h,"[4]; day 74, 0.1 mg/kg sc bi-weekly",1584 (210) % Inhibition · time
same,Emax (% proteasome inhibition),"[4]; day 74, 0.1 mg/kg sc bi-weekly",72%
same,Tmax (time of occurrence of Emax),"[4]; day 74, 0.1 mg/kg sc bi-weekly",30 min
same,AUE0-24 h,"[4]; day 78, 0.166 mg/kg sc weekly",1468 (219) % Inhibition · time
same,Emax (% proteasome inhibition),"[4]; day 78, 0.166 mg/kg sc weekly",77%
same,Tmax (time of occurrence of Emax),"[4]; day 78, 0.166 mg/kg sc weekly",60 min
same,time of maximal proteasome inhibition after dosing,"[4]; on average, sc administration",about 0.5 h
same,maximal inhibition,[4]; weekly 0.166 mg/kg dose group,78%
same,Tmax,"[5]; Cynomolgus, subcutaneous",≤ 15 min
same,Cmax,"[5]; sc, 0.0166 mg/kg",10.7 ng/mL
same,Tmax,"[5]; sc, 0.0166 mg/kg",8.88 min
same,Cmax,"[5]; sc, 0.0333 mg/kg",23.7 ng/mL
same,Tmax,"[5]; sc, 0.0333 mg/kg",6.96 min
same,Cmax,"[5]; sc, 0.05 mg/kg",34.2 ng/mL
same,Tmax,"[5]; sc, 0.05 mg/kg",12 min
same,Kidney weights,"[6]; 0.05 mg/kg/dose, all monkeys",greater than kidney weights of control monkeys
same,Injection site histopathological finding,"[6]; 0.05 mg/kg/dose, male and female",fibroplasia
same,"Peripheral neuropathy: peripheral (sciatic, tibial and peroneal nerves) degeneration",[6]; 0.0333-0.05 mg/kg,peroneal nerves): minimal
same,Peripheral neuropathy: spinal cord dorsal funiculi (cervical & lumbar),[6]; 0.0333-0.05 mg/kg,& lumbar) minimal degeneration
same,Clinical observations: faeces,[6]; 0.0333 or 0.05 mg/kg,"Abnormal faeces (soft, liquid, 0.0333"
same,MTD at 8 weeks,[6]; [18],~0.05 mg/kg
same,Body weight,"[6]; cynomolgus monkey, in vivo",No body weight loss at any other
same,"ECG, ophthalmology, rectal temperature or blood pressure","[6]; cynomolgus monkey, in vivo",No bortezomib-related changes
same,Electrocardiography,"[6]; cynomolgus monkey, in vivo",No abnormalities found at any dose
same,Fibrinogen concentrations,"[6]; cynomolgus monkey, in vivo",fibrinogen concentrations increased
same,Gross abnormalities at necropsy,"[6]; cynomolgus monkey, in vivo",no gross abnormalities
same,Haemathology: mean platelet volume,"[6]; cynomolgus monkey, in vivo",mean platelet volume increased
same,Haemathology: platelet numbers,"[6]; cynomolgus monkey, in vivo",Platelet numbers decreased
same,Histology: BONE MARROW,"[6]; cynomolgus monkey, in vivo",BONE MARROW: no findings
same,Histology: LYMPH NODES,"[6]; cynomolgus monkey, in vivo",LYMPH NODES: no findings
same,Histology: SPLEEN,"[6]; cynomolgus monkey, in vivo",SPLEEN: no findings
same,Ophthalmology,"[6]; cynomolgus monkey, in vivo",No treatment related changes
same,Urinalysis,"[6]; cynomolgus monkey, in vivo",No treatment related findings
same,"Urinalysis parameters creatinine, inorganic phosphorus, ketones, protein and sodium","[6]; cynomolgus monkey, in vivo",Increases
same,Tolerability,"[6]; cynomolgus monkey, in vivo, sc",well tolerated
same,Stool,"[6]; multiple days, one male each at 0.0166 and 0.0333, one female at 0.05 mg/kg/dose",Soft stool
same,Body weight lost,[6]; nine male and female monkeys in the 0.0333 and 0.05 mg/kg/dose groups,3-12%
same,No Observed Adverse Effect Level (NOAEL),[6]; repeated five times weekly sc administration for 8 weeks,cannot be identified
same,AUC0-72 h,[7]; [15],36.7 ng·h/mL
same,AUC0-72 h,"[7]; day 1, 0.1 mg/kg sc bi-weekly",77.5 ng·h/mL
same,AUC0-72 h,[7]; [16],110 ng·h/mL
same,Cmax,[7]; [16],58.8 ng/mL
same,Tmax,[7]; [16],15 min
same,AUC0-72 h,"[7]; day 32, 0.1 mg/kg sc bi-weekly",227 ng·h/mL
same,Tmax,"[7]; day 32, 0.1 mg/kg sc bi-weekly",7.14 min
same,AUC0-72 h,"[7]; day 50, 0.166 mg/kg sc weekly",205 ng·h/mL
same,Cmax,"[7]; day 50, 0.166 mg/kg sc weekly",168 ng/mL
same,AUC0-72 h,[7]; [17],122 ng·h/mL
same,Cmax,[7]; [17],70.1 ng/mL
same,Tmax,[7]; [17],8.34 min
same,AUC0-72 h,"[7]; day 74, 0.1 mg/kg sc bi-weekly",211 ng·h/mL
same,Cmax,"[7]; day 74, 0.1 mg/kg sc bi-weekly",113 ng/mL
same,Tmax,"[7]; day 74, 0.1 mg/kg sc bi-weekly",9.66 min
same,Mortality,"[8]; 0.166 mg/kg weekly, considered treatment related","1 F (day 72), 1 M (day 79), at"
same,MTD at 4 cycles,[8]; [18],~0.1 mg/kg
same,"Peripheral neuropathy: focal axonal neurofiber degeneration, spinal cord (dorsal root ganglia)",[8]; [18],0.1/0.166 (weekly) mg/kg minimal
same,Body weight,"[8]; cynomolgus monkey, in vivo",No body weight loss at other dose
same,Electrocardiography,"[8]; cynomolgus monkey, in vivo",No abnormalities found at any
same,Haemathology,"[8]; cynomolgus monkey, in vivo",No hematological changes related
same,Histology: PANCREAS,"[8]; cynomolgus monkey, in vivo",PANCREAS: no findings
same,Histology: PROSTATE,"[8]; cynomolgus monkey, in vivo",PROSTATE: no findings
same,Ophthalmology,"[8]; cynomolgus monkey, in vivo",No treatment related changes
same,Urinalysis,"[8]; cynomolgus monkey, in vivo",No treatment related findings
same,Histology: LYMPH NODES,[8]; [19],LYMPH NODES: lymphoid atrophy
same,Histology: SPLEEN,[8]; [19],"SPLEEN: pulp, lymphoid atrophy"
same,Mortality,"[8]; other dose levels (0.075, 0.1 mg/kg bi-weekly)",No mortality at other dose levels
